For assay [1], the target named is S1P3 (Homo sapiens (Human), UniProt Q99500). The assay is described as follows: S1P3 agonist assay (Ec50 S1P3Ag). The format is cell-based. The note with it: read-out: Ec 50 (S1P3Ag).
Assay [2] concerns the target S1P1 (Homo sapiens (Human), UniProt P21453). The assay is described as follows: S1P1 agonist assay (Ec50 S1P1Ag). The format is cell-based. The text has this:
The exact dosage will depend upon the activity of the compound, mode of administration, on the therapy desired, form in which administered, the subject to be treated and the body weight of the subject to be treated, and the preference and experience of the physician or veterinarian in charge. S1P1 agonist bioactivity of the compounds of the invention can be determined by use of an in vitro assay system which measures the activation of S1P1, which can be expressed as EC50 values, as are well known in the art inhibitors of the invention can be determined by the method described in the Examples.

Read-outs that look alike come from different tables or passages of the source. Some results are limits rather than exact numbers.

Chain of S1P1 (P21453 whole entry): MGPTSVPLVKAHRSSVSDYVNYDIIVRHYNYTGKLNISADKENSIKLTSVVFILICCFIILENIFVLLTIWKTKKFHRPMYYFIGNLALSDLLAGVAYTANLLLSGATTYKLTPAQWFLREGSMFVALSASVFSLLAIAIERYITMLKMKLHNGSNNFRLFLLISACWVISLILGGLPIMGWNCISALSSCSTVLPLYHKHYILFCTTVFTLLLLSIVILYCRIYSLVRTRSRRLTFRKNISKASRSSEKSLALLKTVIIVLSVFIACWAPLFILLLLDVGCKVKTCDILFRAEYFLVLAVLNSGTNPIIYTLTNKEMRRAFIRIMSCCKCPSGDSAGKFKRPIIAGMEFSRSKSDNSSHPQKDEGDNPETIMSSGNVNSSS
Chain of S1P3 (Q99500 whole entry, species assumed): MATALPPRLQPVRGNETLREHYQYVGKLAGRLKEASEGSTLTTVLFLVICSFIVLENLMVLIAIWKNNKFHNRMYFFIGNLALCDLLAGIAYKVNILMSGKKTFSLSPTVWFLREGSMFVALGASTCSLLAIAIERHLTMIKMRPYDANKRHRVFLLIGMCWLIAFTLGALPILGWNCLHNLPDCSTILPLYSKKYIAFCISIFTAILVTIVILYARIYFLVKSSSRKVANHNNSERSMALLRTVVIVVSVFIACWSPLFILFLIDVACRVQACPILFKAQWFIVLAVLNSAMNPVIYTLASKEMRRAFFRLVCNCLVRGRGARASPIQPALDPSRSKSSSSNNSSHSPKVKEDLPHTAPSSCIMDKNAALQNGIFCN

Take `FC(F)(F)c1cc(-c2nc(-c3ccncc3)no2)cc(C(F)(F)F)c1` [Compound 104]: the EC50 was found to be 3.5 µM in assay [1] and 0.264 µM in assay [2].
On the same counts, the results for `FC(F)(F)c1cc(-c2nc(-c3ccncc3)no2)ccc1-c1ccccc1` [Compound 59] are 5.6 µM and 0.0108 µM.
As to `CCOc1ccc(-c2nc(-c3ccc(CN(C)C)c(C)c3)no2)cc1OCC` [Compound 203], the EC50 is 10 µM in assay [1] (unit μM) and 0.0122 µM in assay [2].
As to `CCOc1ccc(-c2nc(-c3ccc(CO)cc3)no2)cc1OCC` [Compound 186], the EC50 in assay [1] amounted to 0.606 µM; in assay [2], 0.0042 µM.
In the same order, the values of `CC(C)Cc1ccc(C(C)c2nc(-c3ccncc3)no2)cc1` (stereo not shown) [Compound 55] are 0.448 µM and 0.113 µM.
Take `CCOc1ccc(-c2nc(-c3cccc4c3CCN4C)no2)cc1OCC` [Compound 151]: the EC50 stood at 2.4 µM in assay [1] and 0.0059 µM in assay [2].
In the same order, the values of `CCOc1ccc(-c2nc(-c3cccc4c3CCC4N(C)C)no2)cc1OCC` (stereo not shown) [Compound 217] are 0.0135 µM and 0.0246 µM.
In the case of `CCOc1ccc(-c2nc(-c3cccc4ccccc34)no2)cc1OCC` [Compound 211], the EC50 in assay [1] (unit μM) came out at 13.5 µM; in assay [2] it was 0.0272 µM.
For the compound `CCOc1ccc(-c2nc(-c3ccc4[nH]ccc4c3)no2)cc1OCC` [Compound 153], the EC50 in assay [1] amounted to 2 µM; in assay [2] it was 0.0069 µM.
`CCOc1ccc(-c2nc(-c3ccncc3)no2)cc1OCC` [Compound 35]: the EC50 in assay [1] came out at 0.661 µM; in assay [2], 0.0037 µM.
On the same counts, the results for `CCOc1ccc(-c2nc(-c3cccc4[nH]ccc34)no2)cc1OCC` [Compound 110] are 0.823 µM and 0.00052 µM.
Turning to `Cc1cnccc1-c1noc(-c2ccc(-c3ccccc3)c(C(F)(F)F)c2)n1` [Compound 60], the figures for the EC50 in assay [1] and in assay [2] were 0.803 µM and 0.001 µM, respectively.
In the same order, the values of `FC(F)(F)c1cc(Br)cc(-c2nc(-c3ccncc3)no2)c1` [Compound 106] are 8 µM and 0.063 µM.
With `CCCOc1ccc(-c2nc(-c3ccncc3)no2)cc1` [Compound 10], the values for the EC50 in assay [1] and in assay [2] were 3.33 µM and 0.246 µM, respectively.
On to `CCOc1ccc(-c2nc(-c3cccc(CN4CCCC4)c3C)no2)cc1OCC` [Compound 152], for which the EC50 in assay [1] was 2.1 µM; in assay [2], 0.006 µM.
In the same order, the values of `CCOc1ccc(-c2nc(-c3ccnc4[nH]ccc34)no2)cc1OCC` [Compound 167] are 2.2 µM and 0.0022 µM.
Consider `Nc1cc(-c2noc(-c3ccc(-c4ccccc4)c(C(F)(F)F)c3)n2)ccn1` [Compound 61], for which the figures for the EC50 in assay [1] and in assay [2] were 1.32 µM and 0.00078 µM, respectively.
`CC(C)(C)c1cc(-c2nc(-c3ccncc3)no2)cc(C(C)(C)C)c1` [Compound 53]: the EC50 in assay [1] stood at 0.327 µM; in assay [2], 0.156 µM.
In the same order, the values of `CCOc1ccc(-c2nc(-c3cccc(CO)c3)no2)cc1OCC` [Compound 187] are 1.5 µM and 0.007 µM.
On the same counts, the results for `COc1cc(-c2noc(-c3ccnc(C)c3)n2)ccc1C` [Compound 23] are 3.5 µM and 3.3 µM.
In the same order, the values of `CCOc1ccc(-c2nc(-c3ccc(C)c(C)c3)no2)cc1OCC` [Compound 184] are 2 µM and 0.0117 µM.
As to `CCOc1ccc(-c2nc(-c3ccnc(N)c3)no2)cc1OCC` [Compound 36], the results for the EC50 in assay [1] and in assay [2] were 0.387 µM and 0.0017 µM, respectively.
In the same order, the values of `CCOc1ccc(-c2nc(-c3cccc4c3CCC4N3CC[C@@H](O)C3)no2)cc1OCC` (stereo partly shown) [Compound 228] are 2.9 µM and 0.0178 µM.
With `CCOc1ccc(-c2nc(-c3ccc(CO)nc3)no2)cc1OCC` [Compound 214], the EC50 is 13.5 µM in assay [1] (unit μM) and 0.0159 µM in assay [2].
In the case of `CCOc1ccc(-c2nc(-c3ccc4c(c3)CCN4)no2)cc1OCC` [Compound 154], the EC50 was 1.8 µM in assay [1] and 0.0031 µM in assay [2].
For `Cc1cncc(-c2noc(-c3ccc(-c4ccccc4)c(C(F)(F)F)c3)n2)c1` [Compound 62], the EC50 in assay [1] (unit μM) amounted to 24 µM; in assay [2] it was 0.005 µM.
For `CCOc1ccc(-c2nc(-c3cccc4c3CCN4)no2)cc1OCC` [Compound 123], the EC50 in assay [1] was 0.529 µM; in assay [2], 0.0002 µM.
Take `COc1ccc(-c2nc(-c3ccncc3)no2)cc1OC1CCCC1` [Compound 54]: the EC50 in assay [1] was 0.322 µM; in assay [2], 0.0716 µM.
For the compound `FC(F)(F)c1ccc(-c2noc(Cc3ccncc3)n2)cc1` [Compound 5], the EC50 in assay [1] came to 5.1 µM; in assay [2] (unit μM/uM) it was 4.1 µM.
Regarding `FC(F)(F)c1ccc(-c2noc(-c3ccnc(Cl)c3)n2)cc1` [Compound 7], the values for the EC50 in assay [1] and in assay [2] were 0.782 µM and 0.27 µM, respectively.
Turning to `CCOc1ccc(-c2nc(-c3cccc(CN(C)C)c3C)no2)cc1OCC` [Compound 129], the values for the EC50 in assay [1] and in assay [2] were 5.2 µM and 0.0041 µM, respectively.
On the same counts, the results for `CCOc1cc(-c2nc(-c3ccncc3)no2)ccc1OC` [Compound 50] are 2.7 µM and 0.064 µM.
In the case of `CCOc1ccc(-c2nc(-c3ccnc(CO)c3)no2)cc1OCC` [Compound 209], the EC50 in assay [1] worked out at 0.938 µM; in assay [2], 0.00014 µM.
Turning to `CCOc1ccc(-c2nc(-c3cccc(CNCCO)c3C)no2)cc1OCC` [Compound 251], the EC50 in assay [1] turned out to be 0.692 µM; in assay [2] it was 0.0034 µM.
Take `CCOc1ccc(-c2nc(-c3cccc(CO)c3C)no2)cc1OCC` [Compound 177]: the EC50 was 0.774 µM in assay [1] and 0.0008 µM in assay [2].
On to `CCOc1ccc(-c2nc(-c3cncc(C)c3)no2)cc1OCC` [Compound 58], for which the EC50 in assay [1] came out at 3.4 µM; in assay [2] it was 0.0117 µM.
In turn, `CCOc1ccc(-c2nc(-c3ccc4[nH]cc(CN5CCCC5)c4c3)no2)cc1OCC` [Compound 223] registered an EC50 in assay [2] (unit μM/uM) of 10 µM.
`CCOc1ccc(-c2nc(-c3ccc(CN4CCCC4)c(C)c3)no2)cc1OCC` [Compound 202]: in assay [2], the EC50 was determined as 0.0358 µM.
Same read-out and setting: under `CCn1nc(C)cc1-c1nc(-c2ccc(C)c(OC)c2)no1` [Compound 48] stands 0.295 µM; under `CCOc1ccc(-c2nc(-c3ccc(CN4C[C@H](O)C[C@H]4C(=O)N(C)C)cc3C)no2)cc1OCC` [Compound 210], 0.164 µM.
On the same count and under the same terms, under `FC(F)(F)c1cc(-c2nc(-c3ccc(CN4CCCC4)cc3)no2)ccc1-c1ccccc1` [Compound 82] stands 0.048 µM; under `COc1cc(-c2noc(-c3ccc(C#N)c(C)c3)n2)ccc1C` [Compound 46], 0.544 µM.
For `CCOc1ccc(-c2nc(-c3ccc(CCO)cc3)no2)cc1OCC` [Compound 192], the values for the EC50 in assay [1] and in assay [2] were 0.691 µM and 0.0011 µM, respectively.
Regarding `CC(C)Cc1ccc(C(C)c2nc(-c3ccc(S(N)(=O)=O)cc3)no2)cc1` (stereo not shown) [Compound 16], the EC50 is 1.2 µM in assay [1] and 0.0033 µM in assay [2].
In the same order, the values of `CCOc1ccc(-c2nc(-c3ccc(CO)cc3C)no2)cc1OCC` [Compound 201] are 0.716 µM and 0.0005 µM.
For `CCOc1ccc(-c2nc(-c3ccc(OC(F)(F)F)cc3)no2)cc1OCC` [Compound 206], the EC50 in assay [2] was greater than 5 µM.

These data come from patent US10544136B2, “Modulators of sphingosine phosphate receptors” (The Scripps Research Institute, priority 2008, dated 2020).
